This is an account of results in US5583000A, “Protease-binding compounds and methods of use” (priority 1993, dated 1996).

A value given as a limit tells only on which side of the number the result lay.

In one series the target is HIV-1 protease (Human immunodeficiency virus type 1 group M subtype B, UniProt P03369). Briefly: biochemical. As to conditions: for IC50: HIV-1 Protease IC50 (μM) 1M NaCl.
A further series concerns the target T1, HIV-2 protease (Human immunodeficiency virus type 2 subtype A, UniProt P04584).
T1 construct: the coding region of the 99-amino acid protease; made in house; host or cells: Saccharomyces cerevisiae strain AB110, plasmid pHIV2PR115
The experiment in a line: biochemical. As to conditions: 1M NaCl. As for the experimental part: The decapeptide was synthesized by conventional solid-state methods. Reactions were carried out and fractionated by HPLC. Conversion of the decapeptide to the two pentapeptides was quantitated by integration of the peak areas and comparison to product standard curves.
Enzymatic Inhibition. […] Each data point was done in triplicate and initial enzyme rates were fit to the Michaelis-Menten equation using a nonlinear regression program ("Enzfitter" from Biosoft).

T1 sequence (P04584 514-612 limits assumed): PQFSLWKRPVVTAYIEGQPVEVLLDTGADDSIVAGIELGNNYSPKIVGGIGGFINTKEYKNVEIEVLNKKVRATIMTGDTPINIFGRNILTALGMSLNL
Description for in vitro: Cytotoxicity. The MTT assay was performed as follows:
The cells were seeded in 96-well plates and grown overnight to near 50% confluency. A serial dilution (1 to 500 μM) of each compound in culture media was prepared and 250 μL/well was added in duplicate. The cells were allowed to grow for various periods of time (6, 24, 48 hours) and any precipitation of compounds in the wells was noted. The assay was performed by removing 200 μL of the culture media and adding 25 μL of MTT solution (2 mg/mL in phosphate buffered saline (PBS)). This was incubated for 4 hours at 37° C. and live cells began to turn purple while the solution remained yellow. To quench the reaction and solubilize the reaction product, 160 μL of acidified isopropanol (4 mL 1N HCl for 96 mL alcohol) were added and the resulting mixture was mixed vigorously to dissolve purple crystals. Absorbance was determined at 550-570 nm on an ELISA plate reader within 0.5-2 hours. […] To obtain the LD50 values for each compound, the concentration at which the absorbance is haft of that for the untreated cells was determined.

Consider `OC1(c2ccc(Cl)cc2)CCN(CCCC2(c3ccc(F)cc3)SCc3ccc(cc3)CS2)CC1` [UCSF22, (1,4-benzenedimethanethioacetal)-4-[4-(p-chlorophenyl)-4-hydroxypiperidinyl]-4'-fluorobutyrophenone], for which, at HIV-1 protease, the “HIV-1 Protease Therapeutic Index (LD50 /IC50)” value is reported as 5(0.5). The figures for the IC50 at HIV-1 protease and at HIV-2 protease were 100 µM and 54 µM, respectively. In the series “in vitro”, this compound showed a CC50 at 6 h above 500 µM. The solubility in the series “physchem” is below 50 µM.
On to `OC1(c2ccc(Cl)cc2)CCN(CCCC2(c3ccc(F)cc3)SCCCCS2)CC1` [UCSF23, (1,4-butanethioacetal)-4-[4-(p-chlorophenyl)-4-hydroxypiperidinyl]-4'-fluorobutyrophenone], for which, on HIV-1 protease, the “HIV-1 Protease Therapeutic Index (LD50 /IC50)” value came to 1.25 and 20 µM corresponded to half-maximal inhibition (IC50). Further, it took 71 µM to reach half-maximal inhibition against HIV-2 protease (IC50). The compound also had a CC50 at 6 h in the series “in vitro” of 25 µM. In the series “physchem”, this compound showed a solubility above 250 µM.
For `OC1(c2ccccc2)CCN(CCCC2(c3ccccc3)OCCO2)CC1` [UCSF30, (1,2-ethyloxoacetal)-4-(4-phenyl-4-hydroxypiperidinyl)butyrophenone] the same measures were 1, 265 µM, 500 µM, above 250 µM and above 250 µM.
For `O=C(CCCN1CCC(O)(c2ccccc2)CC1)c1ccc(F)cc1` [UCSF31, 4-(4-phenyl-4-hydroxypiperidinyl)-4'-fluorobutyrophenone], in that order: above 1.1, 230 µM, 495 µM, above 250 µM and above 250 µM.
Turning to `OC1(c2ccc(Cl)cc2)CCN(CCCC(O)(c2ccccc2)c2ccc(-c3ccccc3)cc2)CC1` (stereo not drawn) [UCSF33, 4-[4-(p-chlorophenyl)-4-hydroxypiperidinyl)-1-phenyl-1-(p-phenylphenyl)-butan-1-ol], at HIV-1 protease, the “HIV-1 Protease Therapeutic Index (LD50 /IC50)” value was 1.4 and the IC50 was 7 µM. Also, half-maximal inhibition on HIV-2 protease (IC50) required 7 µM. For the same compound, in the series “in vitro”, the CC50 at 6 h turned out to be 10 µM. For the same compound, the solubility in the series “physchem” was below 50 µM.
Turning to `O=C(CCCN1CCC(O)(c2ccccc2)CC1)c1ccccc1` [UCSF34, 4-(4-phenyl-4-hydroxypiperidinyl)butyrophenone], at HIV-1 protease, the “HIV-1 Protease Therapeutic Index (LD50 /IC50)” value is reported as above 1.25. For the same compound, the IC50 at HIV-1 protease turned out to be 400 µM; against HIV-2 protease, 288 µM. This compound also yielded a CC50 at 6 h in the series “in vitro” above 500 µM. This compound also displayed a solubility in the series “physchem” above 500 µM.
Turning to `O=C(CCCN1CCC(O)(c2ccc(Cl)cc2)CC1)c1ccc(-c2ccccc2)cc1` [UCSF36, 4-[4-(p-chlorophenyl)-4-hydroxypiperidinyl]-4'-phenylbutyrophenone], on HIV-1 protease, the “HIV-1 Protease Therapeutic Index (LD50 /IC50)” value was 1.4 and the IC50 came to 32 µM. For the same compound, the IC50 against HIV-2 protease turned out to be 53 µM. Also, in “in vitro”, the CC50 at 6 h worked out at 50 µM. Also, the solubility in “physchem” was below 50 µM.
For `C=C(CCCN1CCC(O)(c2ccc(Cl)cc2)CC1)c1ccc(F)cc1` [UCSF37, 1-[4-(4-chlorophenyl)-4-hydroxypiperidinyl]-4-(4-fluorophenyl)-4-pentene], in that order: 1.3, 39 µM, 34 µM, 50 µM and below 200 µM.
Consider `CSCC(O)(CCCN1CCC(O)(c2ccc(Cl)cc2)CC1)c1ccc(F)cc1` (stereo not drawn) [UCSF39, 5-[4-(4-chlorophenyl)-4-hydroxypiperidinyl]-2-(4-fluorophenyl)pentan-2-ol-1-methylsulfide], for which, at HIV-1 protease, the “HIV-1 Protease Therapeutic Index (LD50 /IC50)” value stood at 1.2 and half-maximal inhibition (IC50) required 75 µM. The same compound showed an IC50 at HIV-2 protease of 135 µM. In addition, in the series “in vitro”, the CC50 at 6 h worked out at 90 µM. This compound came in with a solubility in the series “physchem” above 500 µM.
For `C=CC(O)(CCCN1CCC(O)(c2ccc(Cl)cc2)CC1)c1ccc(F)cc1` (stereo not drawn) [UCSF40, 6-[4-(4-chlorophenyl)-4-hydroxypiperidinyl]-3-(4-fluorophenyl)hex-1-en-3-ol], in that order: 1.25, 80 µM, 200 µM, 100 µM and below 100 µM.
For `Cc1ccc(C(=O)CC(CN2CCC(O)(c3ccc(Cl)cc3)CC2)c2ccccc2)cc1` (stereo not drawn) [UCSF43, 4-[4-(p-chlorophenyl)-4-hydroxypiperidinyl]-3-phenyl-4'-methylbutyrophenone] the same measures were 7(1), 50 µM, 27 µM, 350 µM and above 500 µM.
In the case of `Cc1ccc(C(=O)CCC(c2ccccc2)N2CCC(O)(c3ccc(Cl)cc3)CC2)cc1` (stereo not drawn) [UCSF44, 4-[4-(p-chlorophenyl)-4-hydroxypiperidinyl]-4-phenyl-4'-methylbutyrophenone], the “HIV-1 Protease Therapeutic Index (LD50 /IC50)” value on HIV-1 protease is 5.7(0.7). Moreover, the IC50 came out at 35 µM against HIV-1 protease and 43 µM at HIV-2 protease. The compound further came in with a CC50 at 6 h in the series “in vitro” of 200 µM. Also, in the series “physchem”, the solubility was below 25 µM.
For `OC1(c2ccc(Cl)cc2)CCN(CCN(Cc2ccccc2)Cc2ccccc2)CC1` [UCSF46, 2-[4-(4-chlorophenyl)-4-hydroxypiperidinyl]-(N,N-dibenzyl)ethylamine], in that order: 0.7, 30 µM, 34 µM, 20 µM and above 500 µM.
For `OC1(c2ccc(Cl)cc2)CCN(CCC[Si](c2ccccc2)(c2ccccc2)c2ccccc2)CC1` [UCSF47, (3-[4-(4-chlorophenyl)-4-hydroxypiperidinyl)-1-propyl)triphenylsilane], in that order: 0.2, 90 µM, 1.5 µM, 15 µM and above 500 µM.
For `OC1(c2ccc(Cl)cc2)CCN(CCCC2(c3ccccc3)OCCO2)CC1` [UCSF49], in that order: 1.2, 100 µM, 180 µM, 120 µM and below 50 µM.
On to `CC(CCN1CCC(O)(c2ccc(Cl)cc2)CC1)C(=O)c1ccc(F)cc1` (stereo not drawn) [UCSF50], for which the values for the IC50 on HIV-1 protease and at HIV-2 protease were 100 µM and 126 µM, respectively. In “in vitro”, this compound yielded a CC50 at 6 h of 90 µM. Further, the solubility in “physchem” was above 500 µM.
For `O=C(CCCN1CCC(O)(c2ccc(Cl)cc2)CC1)c1ccccc1-c1ccccc1` [UCSF51, 4-(4-(p-chlorophenyl)-4-hydroxypiperidinyl)-2'-phenylbutyrophenone], the IC50 against HIV-1 protease stood at 40 µM; against HIV-2 protease, 68 µM. Besides, in the series “in vitro”, the CC50 at 6 h turned out to be 45 µM. For the same compound, the solubility in “physchem” was below 250 µM.
Consider `O=C(CCCN1CCC(O)(c2ccc(Cl)cc2)CC1)c1cccc(-c2ccccc2)c1` [UCSF52, 4-(4-(p-chlorophenyl)-4-hydroxypiperidinyl)-3'-phenylbutyrophenone], for which, at HIV-1 protease, the “HIV-1 Protease Therapeutic Index (LD50 /IC50)” value was 0.5 and the IC50 came out at 20 µM. The half-inhibitory concentration (IC50) against HIV-2 protease stood at 19 µM. In “in vitro”, this compound gave a CC50 at 6 h of 10 µM. Besides, in the series “physchem”, the solubility was below 250 µM.
`OC1(c2ccc(Cl)cc2)CCN(CCCNCc2ccccc2)CC1` [UCSF55, 3-[4-(4-chlorophenyl)-4-hydroxypiperidinyl]-N-(benzyl)propylamine]: the “HIV-1 Protease Therapeutic Index (LD50 /IC50)” value at HIV-1 protease is on record as below 0.02. The values for the IC50 against HIV-1 protease and on HIV-2 protease were 2500 µM and above 2500 µM, respectively. For the same compound, the CC50 at 4 h in the series “in vitro” was found to be 60 µM. Moreover, in “physchem”, the solubility was above 500 µM.
Turning to `OC1(c2ccc(Cl)cc2)CCN(CCCC(O)(c2ccccc2)c2ccccc2-c2ccccc2)CC1` (stereo not drawn) [UCSF56], the values for the IC50 against HIV-1 protease and against HIV-2 protease were 20 µM and 11 µM, respectively. Besides, the CC50 at 4 h in the series “in vitro” came out at 20 µM. Besides, the solubility in “physchem” was below 500 µM.
Regarding `OC1(c2ccc(Cl)cc2)CCN(CCCC(O)(c2ccccc2)c2cccc(-c3ccccc3)c2)CC1` (stereo not drawn) [UCSF57, 4-(4-(p-chlorophenyl)-4-hydroxypiperidinyl)-1-phenyl-1-(3'-phenylphenyl)-butan-1-ol], the IC50 came out at 10 µM against HIV-1 protease and 14 µM against HIV-2 protease. This compound displayed a CC50 at 4 h in the series “in vitro” of 25 µM. The solubility in “physchem” was below 500 µM.
In the case of `COCCN(CCN1CCC(O)(c2ccc(Cl)cc2)CC1)Cc1ccccc1` [UCSF58, 2-[4-(4-chlorophenyl)-4-hydroxypiperidinyl]-N-benzyl-N-(2-methoxyethyl)ethylamine], at HIV-1 protease, the “HIV-1 Protease Therapeutic Index (LD50 /IC50)” value is on record as below 0.3 and half-maximal inhibition (IC50) was put at 300 µM. Moreover, half-maximal inhibition against HIV-2 protease (IC50) required 290 µM. This compound had a CC50 at 4 h in the series “in vitro” of 110 µM. For the same compound, the solubility in the series “physchem” is above 500 µM.
As for `OC1(c2ccc(Cl)cc2)CCN(CCCC2(c3cccc(-c4ccccc4)c3)SCCS2)CC1` [UCSF59], the IC50 against HIV-1 protease turned out to be 8 µM; on HIV-2 protease it was 7 µM. Besides, the CC50 at 4 h in the series “in vitro” turned out to be 45 µM. In the series “physchem”, this compound returned a solubility below 500 µM.
As to `O=C(CCCN1CCC(CO)(c2ccccc2)CC1)c1ccc(F)cc1` [UCSF60], on HIV-1 protease, the “HIV-1 Protease Therapeutic Index (LD50 /IC50)” value was above 0.2 and it took 2500 µM to reach half-maximal inhibition (IC50). The compound further showed a half-maximal inhibitory concentration (IC50) against HIV-2 protease above 2500 µM. Also, the CC50 at 4 h in “in vitro” was above 500 µM. This compound also came in with a solubility in “physchem” above 500 µM.
As to `OC1(c2ccc(Cl)cc2)CCN(CCCN(CCc2ccccc2)Cc2ccccc2)CC1` [UCSF61, 3-[4-(4-chlorophenyl)-4-hydroxypiperidinyl]-N-benzyl-N-(2-phenyl-ethyl)-propylamine], at HIV-1 protease, the “HIV-1 Protease Therapeutic Index (LD50 /IC50)” value was 0.2-0.4 and half-maximal inhibition (IC50) was put at 220 µM. In addition, at HIV-2 protease, the IC50 worked out at 230 µM. Besides, the CC50 at 6 h in “in vitro” was determined as 40 µM. In “physchem”, the solubility was below 500 µM.

As a reminder, the IC50 is the concentration that gives 50% inhibition. A high value points to weaker potency. In general, solubility refers to how much of the substance goes into solution per volume.
